Where two headings read alike, the source gives them in different places.
Assays:
[1] = target: T1, Human recombinant C-ter-His-FLAG-HDAC1 (Homo sapiens, UniProt Q13547); assay: HDAC-Glo I/II enzyme assay, HDAC1; assay type: biochemical; details: ± standard error, three independent measurements
T1 construct: His (C); FLAG (C); purchased BPS Bioscience 50051

K-562 = assay: Cell Titer-Glo cell viability, K-562; assay type: cell-based; details: Homo sapiens, read-out: IC50 cell viability K-562
Jurkat = assay: Cell Titer-Glo cell viability, Jurkat; assay type: cell-based; details: Homo sapiens, 120 h, read-out: IC50 cell viability Jurkat
THP-1 = assay: Cell Titer-Glo cell viability, THP-1; assay type: cell-based; details: Homo sapiens, read-out: IC50 cell viability THP-1
HDAC-3/NcoR2 = target: T2, HDAC-3/NcoR2 (Homo sapiens, UniProt O15379); assay: HDAC-Glo I/II enzyme assay, HDAC3; assay type: biochemical; details: ± standard error, three independent measurements
T2 construct: purchased BPS Bioscience 50003

HDAC6 [2] = target: T3, HDAC6 (Homo sapiens, UniProt Q9UBN7); assay: Cellular thermal shift assay (CETSA), HDAC6; assay type: cell-based; details: THP-1 cells, 1 h; 4 μM (methods, Figure 2), Figure S14 legend 500 nM
T3 construct: endogenous in cells; host or cells: THP-1
T3 sequence (Q9UBN7 1-1215): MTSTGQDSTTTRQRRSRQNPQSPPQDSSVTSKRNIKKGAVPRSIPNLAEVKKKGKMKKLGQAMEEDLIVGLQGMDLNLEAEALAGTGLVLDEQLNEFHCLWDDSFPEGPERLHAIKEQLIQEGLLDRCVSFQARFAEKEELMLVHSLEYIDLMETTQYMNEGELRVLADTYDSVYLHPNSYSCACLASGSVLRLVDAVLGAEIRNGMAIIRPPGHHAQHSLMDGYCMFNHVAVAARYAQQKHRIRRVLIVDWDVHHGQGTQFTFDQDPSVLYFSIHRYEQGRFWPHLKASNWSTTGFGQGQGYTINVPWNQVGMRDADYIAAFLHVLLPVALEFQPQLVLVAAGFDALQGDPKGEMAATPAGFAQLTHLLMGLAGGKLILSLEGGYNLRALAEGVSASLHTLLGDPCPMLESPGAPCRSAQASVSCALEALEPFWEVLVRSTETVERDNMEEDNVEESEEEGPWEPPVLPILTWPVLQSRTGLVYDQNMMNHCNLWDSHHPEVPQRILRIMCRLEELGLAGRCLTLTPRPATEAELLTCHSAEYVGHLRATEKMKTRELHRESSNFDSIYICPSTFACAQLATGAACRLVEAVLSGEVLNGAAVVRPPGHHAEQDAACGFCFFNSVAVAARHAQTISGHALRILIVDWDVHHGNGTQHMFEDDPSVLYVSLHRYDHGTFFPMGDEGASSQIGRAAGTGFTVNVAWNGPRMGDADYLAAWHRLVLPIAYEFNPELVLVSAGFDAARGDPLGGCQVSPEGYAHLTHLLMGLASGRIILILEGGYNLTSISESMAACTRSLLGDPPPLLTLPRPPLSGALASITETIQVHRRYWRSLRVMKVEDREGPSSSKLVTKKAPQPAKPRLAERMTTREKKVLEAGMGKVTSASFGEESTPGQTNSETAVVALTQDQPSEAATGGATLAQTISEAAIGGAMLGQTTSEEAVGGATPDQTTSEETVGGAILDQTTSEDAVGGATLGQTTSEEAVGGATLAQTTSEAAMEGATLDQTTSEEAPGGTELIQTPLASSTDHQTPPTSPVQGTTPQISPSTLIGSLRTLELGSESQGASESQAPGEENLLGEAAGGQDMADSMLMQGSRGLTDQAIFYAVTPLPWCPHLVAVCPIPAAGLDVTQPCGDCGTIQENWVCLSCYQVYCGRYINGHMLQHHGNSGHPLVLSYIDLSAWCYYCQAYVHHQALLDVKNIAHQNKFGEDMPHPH
Experimental: (§1) THP-1 cells, 1 × 10^7 cells at a density of 1 × 10^6 cells/mL, were treated with 4 μM of test compounds (1 h, 37 °C, 5% CO2). Cells were centrifuged, and the pellet was resuspended with 1 × Phosphate Buffer Saline (Gibco, Grand Island, NY, USA, #10010023) containing 1 × Protease Inhibitor Cocktail (Cell Signaling Technology, Beverly, MA, USA, #5871) and 1 mM phenylmethylsulfonyl fluoride (PMSF, Sigma Aldrich, St. Louis, MO, USA, #10837091001). The suspension volume was divided equally and heated for 3 min at 43–64 °C in a T100 Thermal Cycler (Bio-rad, Hercules, CA, USA). For protein extraction, cells were snap-frozen using liquid nitrogen, thawed twice (25 °C, 1 min), then centrifuged (20,000× g, 15 min, 4 °C). Following centrifugation, protein containing supernatants were denatured at 70 °C for 10 min and loaded on SDS-PAGE gels (Bio-Rad, Hercules, CA, USA, 161-0317). After electrophoresis (100 V and 60 min), proteins were transferred onto PVDF membrane (Bio-Rad #1620177) at 200 mA for 180 min and immunoblotted with primary antibodies (1:10,000 dilution for anti-LSD1 Antibody ab129195 [EPR6825], 1:1000 dilution for Anti-HDAC6 Antibody CST 7558, 1:1000 dilution for Anti-HDAC1 Antibody ab53091, 1:1000 dilution for Anti-HDAC8 Antibody ab187139, 1:5000 dilution for Anti-beta Actin Antibody ab8227) overnight at 4 °C. The next day, membranes were incubated with HRP-conjugated secondary antibodies (1:5000 dilution for Abcam, Cambridge, UK, ab205718) for 1 h at room temperature. The signal was detected with BIORAD Chemi-Doc XRS+ System and by using Immobilon Forte Western HRP Substrate (WBLUF0500).

HDAC1 = target: T4, HDAC1 (Homo sapiens, UniProt Q13547); assay: Cellular thermal shift assay (CETSA), HDAC1; assay type: cell-based; details: THP-1 cells, 1 h; 4 μM (methods), Figure S14 legend 500 nM
T4 construct: endogenous in cells; host or cells: THP-1
Experimental: (§2) THP-1 cells, 1 × 10^7 cells at a density of 1 × 10^6 cells/mL, were treated with 4 μM of test compounds (1 h, 37 °C, 5% CO2). Cells were centrifuged, and the pellet was resuspended with 1 × Phosphate Buffer Saline (Gibco, Grand Island, NY, USA, #10010023) containing 1 × Protease Inhibitor Cocktail (Cell Signaling Technology, Beverly, MA, USA, #5871) and 1 mM phenylmethylsulfonyl fluoride (PMSF, Sigma Aldrich, St. Louis, MO, USA, #10837091001). The suspension volume was divided equally and heated for 3 min at 43–64 °C in a T100 Thermal Cycler (Bio-rad, Hercules, CA, USA). For protein extraction, cells were snap-frozen using liquid nitrogen, thawed twice (25 °C, 1 min), then centrifuged (20,000× g, 15 min, 4 °C). Following centrifugation, protein containing supernatants were denatured at 70 °C for 10 min and loaded on SDS-PAGE gels (Bio-Rad, Hercules, CA, USA, 161-0317). […] The signal was detected with BIORAD Chemi-Doc XRS+ System and by using Immobilon Forte Western HRP Substrate (WBLUF0500).

N-ter-GST-HDAC-6 = target: T5, N-ter-GST-HDAC-6 (Homo sapiens, UniProt Q9UBN7); assay: HDAC-Glo I/II enzyme assay, HDAC6; assay type: biochemical; details: ± standard error, three independent measurements
T5 construct: GST (N); purchased BPS Bioscience 50006
T5 sequence (Q9UBN7 1-1215): T3 sequence (Q9UBN7 1-1215)

C-terminal His-tag-HDAC8 = target: T6, C-terminal His-tag-HDAC8 (Homo sapiens, UniProt Q9BY41); assay: HDAC-Glo I/II enzyme assay, HDAC8; assay type: biochemical; details: ± standard error, three independent measurements
T6 construct: His (C); purchased BPS Bioscience 50008
T6 sequence (Q9BY41 1-377): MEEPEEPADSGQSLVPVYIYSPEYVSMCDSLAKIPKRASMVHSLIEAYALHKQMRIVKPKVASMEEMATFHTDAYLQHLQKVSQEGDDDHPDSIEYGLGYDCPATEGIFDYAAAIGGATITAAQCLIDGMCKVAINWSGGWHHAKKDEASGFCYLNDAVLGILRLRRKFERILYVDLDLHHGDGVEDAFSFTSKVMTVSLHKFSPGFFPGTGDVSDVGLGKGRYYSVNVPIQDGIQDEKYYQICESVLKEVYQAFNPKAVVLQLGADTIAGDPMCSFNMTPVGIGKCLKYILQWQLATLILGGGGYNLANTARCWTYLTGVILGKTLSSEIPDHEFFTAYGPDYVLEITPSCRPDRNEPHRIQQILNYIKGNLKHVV

LSD1 [3] = target: T7, LSD1 (Homo sapiens, UniProt O60341); assay: LSD1 MALDI-TOF enzyme assay; assay type: biochemical; parameters: made in house; details: ± standard error, three independent measurements
HDAC8 = target: T8, HDAC8 (Homo sapiens, UniProt Q9BY41); assay: Cellular thermal shift assay (CETSA), HDAC8; assay type: cell-based; details: THP-1 cells, 1 h; 4 μM (methods, Figure 2), Figure S14 legend 500 nM
T8 construct: endogenous in cells; host or cells: THP-1
T8 sequence (Q9BY41 1-377): T6 sequence (Q9BY41 1-377)
Experimental: as §2

MOLM-13 [4] = assay: Cell Titer-Glo cell viability, MOLM-13; assay type: cell-based; details: Homo sapiens, read-out: IC50 cell viability MOLM-13
LSD1 [5] = target: T7, LSD1; assay: Cellular thermal shift assay (CETSA), LSD1; assay type: cell-based; parameters: endogenous in cells; host or cells: THP-1; details: THP-1 cells, 1 h; 4 μM (methods, Figure 2), Figure S14 legend 500 nM
Experimental: as §1

HDAC6 [6] = target: T3, HDAC6; parameters: method as in PMID 22262760; details: cited from earlier work
MOLM-13 [7] = assay: Combination treatment with doxorubicin, MOLM-13 cell viability; assay type: cell-based; details: iDual 0.5 μM, iHDAC6 0.5 μM, GSK2879552 1.25 μM, ricolinostat […], 72 h then + doxorubicin 2 nM 48 h
[8] = system: LSD1 and HDAC substrates in THP-1 cells; assay: Western blot of methylation and acetylation levels of LSD1 and HDAC substrates; assay type: cell-based; details: for nuclear histone H3 acetylation (H3K18ac and H3K27ac levels), change vs DMSO: 24 h (ricolinostat 0.75 μM or 4 μM)
[9] = cited from earlier work
LSD2 = details: cited from earlier work
MAOs = details: cited from earlier work
THP-1 cells = assay: Caspase 3/7 and 7-AAD staining (flow cytometry); details: doxorubicin alone at sublethal concentration (62.5 nM, 48 h)
[10] = K562, 120 h, ± standard deviation, three biological repeats
[11] = ± standard deviation, three biological repeats
[12] = THP-1, 120 h, ± standard deviation, three biological repeats
[13] = MOLM-13, 120 h, ± standard deviation, three biological repeats

T4 sequence (Q13547 whole entry): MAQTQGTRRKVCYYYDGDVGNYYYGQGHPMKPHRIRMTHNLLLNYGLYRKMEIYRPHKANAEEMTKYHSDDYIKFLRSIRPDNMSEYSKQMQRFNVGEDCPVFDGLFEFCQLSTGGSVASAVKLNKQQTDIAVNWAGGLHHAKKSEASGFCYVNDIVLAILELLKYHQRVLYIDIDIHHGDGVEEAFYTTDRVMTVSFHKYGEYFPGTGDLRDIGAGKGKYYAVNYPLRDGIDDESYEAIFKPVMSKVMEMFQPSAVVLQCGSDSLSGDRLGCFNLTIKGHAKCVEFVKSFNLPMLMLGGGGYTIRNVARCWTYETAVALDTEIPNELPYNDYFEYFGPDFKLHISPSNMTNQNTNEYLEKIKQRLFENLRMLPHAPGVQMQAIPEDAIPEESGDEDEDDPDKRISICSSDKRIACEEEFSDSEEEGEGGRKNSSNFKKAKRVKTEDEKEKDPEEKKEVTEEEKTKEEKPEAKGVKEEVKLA
T1 sequence (Q13547 whole entry): as above
T2 sequence (O15379 whole entry): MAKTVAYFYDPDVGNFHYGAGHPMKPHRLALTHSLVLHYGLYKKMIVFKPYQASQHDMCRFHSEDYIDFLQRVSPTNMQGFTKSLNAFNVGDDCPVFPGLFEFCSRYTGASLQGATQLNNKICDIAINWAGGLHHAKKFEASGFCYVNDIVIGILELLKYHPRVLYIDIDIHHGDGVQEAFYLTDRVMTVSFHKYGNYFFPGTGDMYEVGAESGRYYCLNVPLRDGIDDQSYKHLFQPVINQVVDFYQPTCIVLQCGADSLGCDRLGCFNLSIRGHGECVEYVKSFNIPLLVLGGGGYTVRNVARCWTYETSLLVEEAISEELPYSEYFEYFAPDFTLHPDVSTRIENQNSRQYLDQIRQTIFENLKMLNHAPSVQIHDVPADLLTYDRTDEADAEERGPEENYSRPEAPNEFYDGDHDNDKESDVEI
T2 sequence (Q9Y618 395-489 partner limits assumed): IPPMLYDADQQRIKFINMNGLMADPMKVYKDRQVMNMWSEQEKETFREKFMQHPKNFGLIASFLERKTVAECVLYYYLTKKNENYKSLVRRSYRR

O=C(O)c1ccc(CN2CCC(CNC3(c4ccccc4)CC3)CC2)cc1 [iNC]
IC50 [1]: > 100 µM | IC50 (K-562; [10]): > 20 µM | IC50 (Jurkat; [11]): > 20 µM | IC50 (THP-1; [12]): > 20 µM | IC50 (HDAC-3/NcoR2): > 100 µM | thermal stabilization of HDAC6 (CETSA) (HDAC6 [2]): did not exhibit target engagement | thermal stabilization of HDAC1 (CETSA) (HDAC1): did not exhibit target engagement | IC50 (N-ter-GST-HDAC-6): > 100 µM | IC50 (C-terminal His-tag-HDAC8): > 100 µM | IC50 (LSD1 [3]): > 100 µM | thermal stabilization of HDAC8 (CETSA) (HDAC8): did not exhibit target engagement | IC50 (MOLM-13 [4]; [13]): > 20 µM | thermal stabilization of LSD1 (CETSA) (LSD1 [5]): did not exhibit target engagement

O=C(CCCCCCNC(=O)c1cnc(N(c2ccccc2)c2ccccc2)nc1)NO [ricolinostat, reference compound]
IC50 (K-562; K562, 120 h): 2.6 ± 0.3 µM | IC50 (Jurkat): 1.9 ± 0.003 µM | IC50 (THP-1; THP-1, 120 h): 2.9 ± 0.1 µM | HDAC6/HDAC1 isoform selectivity reported (HDAC6 [6]): approximately 10 fold | thermal stabilization of HDAC6 (CETSA) (HDAC6 [2]): stabilizing HDAC6 | thermal stabilization of HDAC1 (CETSA) (HDAC1): stabilized | cell viability after priming with compound and co-treatment with doxorubicin 2 nM (MOLM-13 [7]): next in terms of activity | acetylation levels of α-tubulin, fold increase vs DMSO ([8]; 4 μM, 24 h): 25 fold | nuclear histone H3 acetylation (H3K18ac and H3K27ac levels), change vs DMSO ([8]; 4 μM): greater effect | acetylation levels of α-tubulin, fold increase vs DMSO ([8]; ~0.75 μM (similar fraction of IC50), 24 h): 20 fold | IC50 (MOLM-13 [4]; MOLM-13, 120 h): 0.2 ± 0.03 µM

O=C(O)c1ccc(CN2CCC(CN[C@@H]3C[C@H]3c3ccccc3)CC2)cc1 [GSK2879552, reference compound]
IC50 [1]: > 100 µM | IC50 (K-562; [10]): > 20 µM | IC50 (Jurkat; [11]): > 20 µM | IC50 (THP-1; [12]): > 20 µM | in vivo oral bioavailability [9]: favorable | IC50 (HDAC-3/NcoR2): > 100 µM | IC50 (N-ter-GST-HDAC-6): > 100 µM | cell viability after priming with compound and co-treatment with doxorubicin 2 nM (MOLM-13 [7]): relatively ineffective | IC50 (C-terminal His-tag-HDAC8): > 100 µM | levels of the histone substrate H3K4me2 ([8]; 4 μM, 24 h): increase | nuclear histone H3 acetylation (H3K18ac and H3K27ac levels), change vs DMSO ([8]; 4 μM): did not significantly alter | IC50 (LSD1 [3]): 1.54 ± 0.41 µM | inhibition of LSD2 (LSD2): undetectable levels of inhibition | inhibition of MAOs (MAOs): undetectable levels of inhibition | IC50 (MOLM-13 [4]; [13]): 15 ± 3.5 µM | thermal stabilization of LSD1 (CETSA) (LSD1 [5]): stabilizing LSD1 only

COc1cccc2c1C(=O)c1c(O)c3c(c(O)c1C2=O)C[C@@](O)(C(=O)CO)C[C@@H]3O[C@H]1C[C@H](N)[C@H](O)[C@H](C)O1 [doxorubicin]
cells in the apoptosis/dead quadrant (caspase 3/7 staining), drug alone (THP-1 cells): 30%
